In ChEMBL document CHEMBL5230124, “Advances of CCR5 antagonists: From small molecules to macromolecules” (Eur J Med Chem, 2020):
Values after ≈ are worked out from the molar mass of the structure shown. One block for each compound: values may come before it.

Tests used:
[1] = Half life in human plasma; assay type: ADME, cell-free
[2] = Antifertility activity against human Spermatozoa assessed as decrease in sperm motility for 120 mins by hematocytometer analysis; assay type: functional, cell-based
[3] = AUC in Wistar rat at 10 mg/kg, IM administered as H3-lableled compound by scintillation counting method; assay type: ADME, organism-based; parameters: dose 10 mg/kg, route im; settings: in vivo
[4] = Terminal half life in Wistar rat at 10 mg/kg, IM administered as H3-lableled compound by scintillation counting method; assay type: ADME, organism-based; settings: in vivo

half-life [1]: 1800 min
Structure (SMILES): CCCCOCCOc1ccc(-c2ccc3c(c2)/C=C(/C(=O)Nc2ccc([S@@+]([O-])Cc4cncn4CCC)cc2)CCCN3CC(C)C)cc1 [CENICRIVIROC]

EC50 [2]: 1.5 mg/mL (≈ 2580 µM)
Structure (SMILES): CCN(Cc1ccccc1)C(=O)C1CCN(CCCN(C(=O)C2CCN(C(C)=O)CC2)c2ccc(C)c(Cl)c2)CC1

AUC [3]: 567.17 ng·h/mL
beta t1/2 [4]: 53.23 h
Structure (SMILES): Cc1nnc(C(C)C)n1[C@H]1C[C@H]2CC[C@@H](C1)N2CC[C@H](NC(=O)C1CCC(F)(F)CC1)c1ccccc1 [MARAVIROC]
